What was measured:
Format in all cases: in vivo
Sorghum [1] = assay: Post-emergence test/greenhouse, Sorghum; settings: greenhouse, after three weeks
Method: (§1) Solvent: 5 parts by weight of acetone
(§2) Emulsifier: 1 part by weight of alkylaryl polyglycol ether
(§3) To produce a suitable preparation of active compound, 1 part by weight of active compound is mixed with the stated amount of solvent, the stated amount of emulsifier is added and the concentrate is diluted with water to the desired concentration.
(§4) Test plants which have a height of 5-15 cm are sprayed with the preparation of the active compound in such a way as to apply the particular amounts of active compound desired per unit area. The concentration of the spray liquor is chosen so that the particular amounts of active compound desired are applied in 2000 l of water/ha.
(§5) After three weeks, the degree of damage to the plants is rated in % damage in comparison to the development of the untreated control.
(§6) 0%=no action (like untreated control)

Matricaria [2] = assay: Pre-emergence test/Greenhouse, Matricaria; settings: after three weeks
In short: (§7)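 Emulsifier-formulated compound applied by soil watering ~24 h after sowing; damage scored at three weeks as % of untreated control.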

Digitaria = assay: Post-emergence test/greenhouse, Digitaria; settings: greenhouse, after three weeks
Method: as §1, §2, §3, §4, §5, §6

weeds [3] = assay: Post-emergence test (greenhouse), activity against weeds; settings: in words
Method: as §1, §2, §3, §4, §5, §6

weeds [4] = assay: Pre-emergence test (greenhouse), activity against weeds; settings: in words
In short: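 Three weeks after treatment, % damage relative to untreated plants is scored, 0% meaning no effect. Seeds in normal soil received, roughly one day post-sowing, an aqueous dilution of an acetone/emulsifier concentrate, with the rate per unit area, not concentration, being the relevant dose.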

Matricaria [5] = assay: Post-emergence test/greenhouse, Matricaria; settings: greenhouse, after three weeks
Method: as §1, §2, §3, §4, §5, §6

Maize [6] = assay: Pre-emergence test/Greenhouse, Maize; settings: in vivo
In short: as §7

Lolium [7] = assay: Pre-emergence test/Greenhouse, Lolium; settings: after three weeks
In short: as §7

Lolium [8] = assay: Post-emergence test/greenhouse, Lolium; settings: greenhouse, after three weeks
Method: as §1, §2, §3, §4, §5, §6

Maize [9] = assay: Post-emergence test/greenhouse, Maize; settings: greenhouse, after three weeks
Method: as §1, §2, §3, §4, §5, §6

Stellaria = assay: Post-emergence test/greenhouse, Stellaria; settings: greenhouse, after three weeks
Method: as §1, §2, §3, §4, §5, §6

Solanum = assay: Pre-emergence test/Greenhouse, Solanum; settings: after three weeks
In short: as §7

Sorghum [10] = assay: Pre-emergence test/Greenhouse, Sorghum; settings: after three weeks
In short: as §7

Echinochloa = assay: Post-emergence test/greenhouse, Echinochloa; settings: greenhouse, after three weeks
Method: as §1, §2, §3, §4, §5, §6

Amaranthus = assay: Post-emergence test/greenhouse, Amaranthus; settings: greenhouse, after three weeks
Method: as §1, §2, §3, §4, §5, §6

Ambrosia = assay: Pre-emergence test/Greenhouse, Ambrosia; settings: after three weeks
In short: as §7

Gallium = assay: Post-emergence test/greenhouse, Gallium; settings: greenhouse, after three weeks
Method: as §1, §2, §3, §4, §5, §6

Poa = assay: Pre-emergence test/Greenhouse, Poa; settings: after three weeks
In short: as §7

Soya beans = assay: Pre-emergence test/Greenhouse, Soya beans; settings: in vivo
In short: as §7

Structure (SMILES)	activity against weeds (weeds [3])	activity against weeds (weeds [4])	degree of damage to the plants (% damage vs untreated control), Maize (Maize [6]) [%]	degree of damage, Sorghum (Sorghum [1]; 60 g of ai./ha) [%]	degree of damage, Digitaria (Digitaria; 60 g of ai./ha) [%]	degree of damage, Matricaria (Matricaria [5]; 60 g of ai./ha) [%]	degree of damage, Lolium (Lolium [8]; 60 g of ai./ha) [%]	degree of damage, Maize (Maize [9]; 60 g of ai./ha) [%]	degree of damage, Stellaria (Stellaria; 60 g of ai./ha) [%]	degree of damage, Echinochloa (Echinochloa; 60 g of ai./ha) [%]	degree of damage, Amaranthus (Amaranthus; 60 g of ai./ha) [%]	degree of damage, Gallium (Gallium; 60 g of ai./ha) [%]	degree of damage to the plants (% damage vs untreated control), Soya beans (Soya beans) [%]	other results
COC(=O)c1scc(C)c1S(=O)(=O)NC(=O)n1nc(SC)n(C)c1=O [Example 6]	very strong activity against weeds	very strong activity against weeds	0											degree of damage, Sorghum (Sorghum [1]; 400 g of ai./ha): 80%; degree of damage to the plants (% damage vs untreated control), Matricaria (Matricaria [2]; 125 g of ai./ha): 95%; degree of damage, Digitaria (Digitaria; 400 g of ai./ha): 90%; degree of damage, Matricaria (Matricaria [5]; 400 g of ai./ha): 100%; degree of damage to the plants (% damage vs untreated control), Lolium (Lolium [7]; 125 g of ai./ha): 95%; degree of damage, Lolium (Lolium [8]; 400 g of ai./ha): 95%; degree of damage, Maize (Maize [9]; 400 g of ai./ha): 20%; degree of damage, Stellaria (Stellaria; 400 g of ai./ha): 100%; degree of damage to the plants (% damage vs untreated control), Solanum (Solanum; 125 g of ai./ha): 95%; degree of damage to the plants (% damage vs untreated control), Sorghum (Sorghum [10]; 125 g of ai./ha): 95%; degree of damage, Echinochloa (Echinochloa; 400 g of ai./ha): 95%; degree of damage, Amaranthus (Amaranthus; 400 g of ai./ha): 100%; degree of damage to the plants (% damage vs untreated control), Ambrosia (Ambrosia; 125 g of ai./ha): 95%; degree of damage, Gallium (Gallium; 400 g of ai./ha): 90%; degree of damage to the plants (% damage vs untreated control), Poa (Poa; 125 g of ai./ha): 95%
COCc1nn(C(=O)NS(=O)(=O)c2c(C)csc2C(=O)OC)c(=O)n1C1CC1 [Example 28]	very strong activity against weeds	very strong activity against weeds	0	95	90	90	60	10	100	80	100	80		degree of damage to the plants (% damage vs untreated control), Matricaria (Matricaria [2]; 60 g of ai./ha): 95%; degree of damage to the plants (% damage vs untreated control), Lolium (Lolium [7]; 60 g of ai./ha): 95%; degree of damage to the plants (% damage vs untreated control), Solanum (Solanum; 60 g of ai./ha): 95%; degree of damage to the plants (% damage vs untreated control), Sorghum (Sorghum [10]; 60 g of ai./ha): 95%; degree of damage to the plants (% damage vs untreated control), Ambrosia (Ambrosia; 60 g of ai./ha): 95%; degree of damage to the plants (% damage vs untreated control), Poa (Poa; 60 g of ai./ha): 95%
CCOc1nn(C(=O)NS(=O)(=O)c2c(C)csc2C(=O)OC)c(=O)n1C1CC1 [Example 30]	very strong activity against weeds	very strong activity against weeds	0	95	90	100	60	15	100	70	100	85		degree of damage to the plants (% damage vs untreated control), Matricaria (Matricaria [2]; 30 g of ai./ha): 95%; degree of damage to the plants (% damage vs untreated control), Lolium (Lolium [7]; 30 g of ai./ha): 95%; degree of damage to the plants (% damage vs untreated control), Solanum (Solanum; 30 g of ai./ha): 95%; degree of damage to the plants (% damage vs untreated control), Sorghum (Sorghum [10]; 30 g of ai./ha): 80%; degree of damage to the plants (% damage vs untreated control), Ambrosia (Ambrosia; 30 g of ai./ha): 95%; degree of damage to the plants (% damage vs untreated control), Poa (Poa; 30 g of ai./ha): 95%
COC(=O)c1scc(C)c1S(=O)(=O)NC(=O)n1nc(OC)n(C)c1=O [Example 31]	very strong activity against weeds	very strong activity against weeds	10											degree of damage, Sorghum (Sorghum [1]; 30 g of ai./ha): 80%; degree of damage to the plants (% damage vs untreated control), Matricaria (Matricaria [2]; 15 g of ai./ha): 95%; degree of damage, Digitaria (Digitaria; 30 g of ai./ha): 95%; degree of damage, Matricaria (Matricaria [5]; 30 g of ai./ha): 100%; degree of damage to the plants (% damage vs untreated control), Lolium (Lolium [7]; 15 g of ai./ha): 95%; degree of damage, Lolium (Lolium [8]; 30 g of ai./ha): 90%; degree of damage, Maize (Maize [9]; 30 g of ai./ha): 5%; degree of damage, Stellaria (Stellaria; 30 g of ai./ha): 95%; degree of damage to the plants (% damage vs untreated control), Solanum (Solanum; 15 g of ai./ha): 95%; degree of damage to the plants (% damage vs untreated control), Sorghum (Sorghum [10]; 15 g of ai./ha): 80%; degree of damage, Echinochloa (Echinochloa; 30 g of ai./ha): 95%; degree of damage, Amaranthus (Amaranthus; 30 g of ai./ha): 100%; degree of damage to the plants (% damage vs untreated control), Ambrosia (Ambrosia; 15 g of ai./ha): 95%; degree of damage, Gallium (Gallium; 30 g of ai./ha): 80%; degree of damage to the plants (% damage vs untreated control), Poa (Poa; 15 g of ai./ha): 95%
COCc1nn(C(=O)NS(=O)(=O)c2c(C)csc2C(=O)OC)c(=O)n1C [Example 32]	very strong activity against weeds	very strong activity against weeds	20	95	70	80	70	70	90	100	95	70	20	degree of damage to the plants (% damage vs untreated control), Matricaria (Matricaria [2]; 60 g of ai./ha): 95%; degree of damage to the plants (% damage vs untreated control), Lolium (Lolium [7]; 60 g of ai./ha): 95%; degree of damage to the plants (% damage vs untreated control), Solanum (Solanum; 60 g of ai./ha): 95%; degree of damage to the plants (% damage vs untreated control), Sorghum (Sorghum [10]; 60 g of ai./ha): 60%; degree of damage to the plants (% damage vs untreated control), Ambrosia (Ambrosia; 60 g of ai./ha): 95%; degree of damage to the plants (% damage vs untreated control), Poa (Poa; 60 g of ai./ha): 95%
CCOc1nn(C(=O)NS(=O)(=O)c2c(C)cccc2C(=O)OC(C)C)c(=O)n1C [Example 44]	very strong activity against weeds	very strong activity against weeds	30	100	60	95	70	50		90	100	95	0	degree of damage to the plants (% damage vs untreated control), Matricaria (Matricaria [2]; 8 g of ai./ha): 95%; degree of damage to the plants (% damage vs untreated control), Lolium (Lolium [7]; 8 g of ai./ha): 95%; degree of damage to the plants (% damage vs untreated control), Solanum (Solanum; 8 g of ai./ha): 95%; degree of damage to the plants (% damage vs untreated control), Sorghum (Sorghum [10]; 8 g of ai./ha): 95%; degree of damage to the plants (% damage vs untreated control), Ambrosia (Ambrosia; 8 g of ai./ha): 95%; degree of damage to the plants (% damage vs untreated control), Poa (Poa; 8 g of ai./ha): 95%
CCOc1nn(C(=O)NS(=O)(=O)c2c(C)cccc2C(=O)OC)c(=O)n1C [Example 163]	very strong activity against weeds	very strong activity against weeds	20	95	80	100	80	60	95	70	100	95	0	degree of damage to the plants (% damage vs untreated control), Lolium (Lolium [7]; 4 g of ai./ha): 80%; degree of damage to the plants (% damage vs untreated control), Solanum (Solanum; 4 g of ai./ha): 90%; degree of damage to the plants (% damage vs untreated control), Sorghum (Sorghum [10]; 4 g of ai./ha): 60%; degree of damage to the plants (% damage vs untreated control), Ambrosia (Ambrosia; 4 g of ai./ha): 80%; degree of damage to the plants (% damage vs untreated control), Poa (Poa; 4 g of ai./ha): 95%
